Ten molecules from patent publication US11332485B2, “Penicillin-binding protein inhibitors” (priority 2017, dated 2022) can be followed below.

Assay [1] has as its target T1, PBP3 from Escherichia coli (Escherichia coli, UniProt P0AD68).
T1 construct: made in house
Kind of assay: Fluorescence polarization competition binding assay with Bocillin-FL. The source says: To determine the ability of boronic acid-based test PBP inhibitors to bind Penicillin Binding Proteins (PBPs), Bocillin-FL (fluorescently-labeled penicillin V; ThermoFisher Scientific) was used in a fluorescence polarization (FP) competition binding assay to assess boronic acid PBP inhibitor binding to PBP3 from Escherichia coli. PBP3 from Escherichia coli was cloned and purified as described previously (King, D. T, et al., ACS Infectious Diseases 2015, 1, 175-184). To establish assay conditions for competition binding, an enzyme titration/saturation binding experiment was performed. Bocillin-FL was prepared at […] in a buffer comprised of 50 mM Hepes (pH 8.0), 300 mM NaCl and 5% (v/v) glycerol. Saturation binding was performed by mixing […] of PBP3 ranging in concentrations from […] with 40 μl of the 0.2 μM Bocillin-FL solution, in individual wells of a black 384-well microplate. FP was measured immediately upon addition of PBP3 (Ex, Em), using a Cytation3 (BioTek) microplate reader and measured continuously for 60 minutes. […] The competition binding assay was validated using the beta-lactam ampicillin, with Bocillin-FL at a final concentration of 0.1 μM, PBP3 at a final concentration of 1.5 μM and concentrations of ampicillin from 0-1000 μM. PBP3 was incubated with ampicillin at different concentrations in a black 384-well microplate (Corning) for 30 minutes, then Bocillin-FL added and the FP immediately measured for 60 minutes. […] Binding assays for boronic acid PBP inhibitors were performed in an identical fashion. Representative results are shown in Table 3, where A represents a potency of >500 μM, B represents a potency between 30 μM and 500 μM inclusive, and C represents a potency of <30 μM. NT=Not Tested.
(Fluorescence polarisation rises when a labelled molecule tumbles more slowly, as on binding a larger partner.)

For assay [2], the target named is T2, PBP1a from Escherichia coli (Escherichia coli, UniProt P02918).
T2 construct: made in house
The assay can be described thus: Radioligand competition binding assay with 14C-labeled boronic acid probe (Example 96). The note with it: PBP 0.1 μM. The source says:
(§1) To determine the ability of boronic acid-based test PBP inhibitors to bind Penicillin Binding Proteins (PBPs), a radio-labelled boronic acid PBP inhibitor (Example 96) was used in competition binding assays to determine boronic acid PBP inhibitor binding to PBP1a or PBP1b from Escherichia coli. PBP1a and PBP1b were purified as described previously (Bertsche, U.; et al., J. Biol. Chem. 2005, 280 (45), 38096-38101; Born, P.; et al., J Biol. Chem. 2006. 281 (37), 26985-26993). To establish assay conditions for competition binding, an enzyme titration/saturation binding experiment was performed. Saturation binding was performed in a buffer comprised of 20 mM Tris (pH 7.5), 500 mM NaCl and 0.1% (v/v) TritonX-100, with PBP1a/PBP1b at a final concentration of 0.1 μM and 96 at final concentrations ranging from 0-100 μM. Mixtures were incubated for 60 minutes, then applied to Zeba Spin Desalting columns or plates (ThermoFisher Scientific) and centrifuged at 1000-1500×g for 2 minutes. The flow through, containing PBP bound with 96, was recovered and 100 μL mixed with 5 mL of UltimaGold liquid scintillation cocktail (Perkin Elmer), and the radioactivity counted using a Beckman Coulter LS 6500 Multipurpose scintillation counter. PBP binding of 96 approached saturation at 20 μM of ^14C-labeled probe. The competition binding assay was validated using the beta-lactam ampicillin, with 96 at a final concentration of 20 μM, PBP1a/PBP1b at a final concentration of 0.1 μM. PBP1a/PBP1b was incubated with ampicillin in a 96-well microplate for 60 minutes, then 96 was added and the mixtures incubated for an additional 60 minutes. The mixtures were then applied to Zeba Spin desalting plates and centrifuged at 1000×g for 2 minutes. The flow through was recovered and 100 μl mixed with 5 ml of UltimaGold liquid scintillation cocktail and the radioactivity counted. Ampicillin inhibited binding of 96 with an EC50 (the concentration of inhibitor required to reduce binding of 96 by 50%) of less than 0.5 μM. Binding assays with boronic acid PBP inhibitors were performed in an identical fashion. The potency of boronic acid PBP inhibitors was reported as the EC50 value.
(§2) Representative results are shown in Table 5, where A represents a potency of >100 μM, B represents a potency between 10 μM and 100 μM inclusive, and C represents a potency of <10 μM. NT=Not Tested.
(In general: Loss of bound radioactivity is the signal in a displacement assay; it reports binding, not function.)

The subject of another assay is S. aureus ATCC 29213. The assay can be described thus: Broth microdilution MIC assay. Conditions: Staphylococcus aureus, ATCC29213; broth microdilution, 16-20 hours at 37° C.; read-out: S. aureus 29213 MIC. It counts as cell-based. Put shortly: (§3)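 Visual no-growth endpoint defines the MIC. Inoculum of 5×10^5 CFU/mL in divalent-cation-supplemented Mueller-Hinton broth was exposed to 2-fold dilution series of compound, then incubated 16-20 hours at 37° C per CLSI.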

The subject of assay [3] is hyper-permeable E. coli 901C. Kind of assay: Broth microdilution MIC assay. It is filed as cell-based. The note with it: Escherichia coli, read-out: E. coli 901C MIC. Put shortly: as §3
For the next assay, the system named is E. coli DH5α/pLBII. The assay can be described thus: Broth microdilution MIC assay, empty vector control strain. The note with it: Escherichia coli, read-out: E. coli DH5α/pLBII Microbiological Activity (MIC). It is filed as cell-based. In outline:
(§4)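 CLSI broth microdilution in cation-supplemented Mueller-Hinton broth, 2-fold compound dilutions, 5×10^5 CFU/mL inoculum, 16-20 h at 37° C, MIC read visually as lowest concentration without growth. E. coli DH5α carries CTX-M15 on pLBII under Lac promoter, or empty pLBII as control.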
On the technique in general: Dilution methods test growth across graded concentrations, often in twofold steps.

Assay [4] has as its system E. coli DH5α/pLBII-CTX-M15. Kind of assay: Broth microdilution MIC assay, engineered strain producing CTX-M15. It counts as cell-based, Escherichia coli. Conditions: Escherichia coli, read-out: E. coli DH5α/pLBII-CTX-M15 Microbiological Activity (MIC). In outline: as §4
Assay [5] has as its target T3, PBP1b from Escherichia coli (Escherichia coli, UniProt P02919).
T3 construct: made in house
The assay can be described thus: Radioligand competition binding assay with 14C-labeled boronic acid probe (Example 96). The note with it: 14C-labeled probe 96 at 20 μM, PBP 0.1 μM; read-out: E. coli K12 PBP1b EC50.
Text: as §1, §2

[6] abbreviates: 14C-labeled probe 96 at 20 μM, read-out: E. coli K12 PBP1a EC50.
Where [7] appears, read: E. coli K12 PBP1a EC50, 14C-labeled probe 96 at 20 μM.

Where two headings read alike, the source gives them in different places. Some results are limits rather than exact numbers.

T2 sequence (P02918 whole entry): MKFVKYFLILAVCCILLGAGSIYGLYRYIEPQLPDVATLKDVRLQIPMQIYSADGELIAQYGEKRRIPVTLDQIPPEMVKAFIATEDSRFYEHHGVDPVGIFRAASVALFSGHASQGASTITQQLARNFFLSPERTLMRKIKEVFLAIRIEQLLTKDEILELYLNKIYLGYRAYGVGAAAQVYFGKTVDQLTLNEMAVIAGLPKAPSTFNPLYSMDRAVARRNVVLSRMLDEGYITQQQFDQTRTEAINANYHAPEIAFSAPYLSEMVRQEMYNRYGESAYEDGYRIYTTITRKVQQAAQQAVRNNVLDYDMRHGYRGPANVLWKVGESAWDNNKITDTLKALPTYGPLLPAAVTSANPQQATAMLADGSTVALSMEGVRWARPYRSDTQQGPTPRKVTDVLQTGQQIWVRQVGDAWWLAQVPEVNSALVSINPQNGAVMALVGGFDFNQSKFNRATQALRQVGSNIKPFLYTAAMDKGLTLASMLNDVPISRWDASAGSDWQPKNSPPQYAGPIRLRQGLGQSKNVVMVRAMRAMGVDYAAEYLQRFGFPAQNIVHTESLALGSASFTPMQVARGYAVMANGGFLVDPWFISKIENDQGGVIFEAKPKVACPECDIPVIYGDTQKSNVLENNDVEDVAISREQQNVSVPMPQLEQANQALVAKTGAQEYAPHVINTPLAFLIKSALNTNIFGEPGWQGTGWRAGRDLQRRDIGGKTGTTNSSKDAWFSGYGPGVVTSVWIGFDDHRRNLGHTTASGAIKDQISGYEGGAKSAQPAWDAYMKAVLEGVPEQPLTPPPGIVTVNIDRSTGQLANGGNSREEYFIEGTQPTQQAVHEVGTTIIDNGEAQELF
T1 sequence (P0AD68 1-577): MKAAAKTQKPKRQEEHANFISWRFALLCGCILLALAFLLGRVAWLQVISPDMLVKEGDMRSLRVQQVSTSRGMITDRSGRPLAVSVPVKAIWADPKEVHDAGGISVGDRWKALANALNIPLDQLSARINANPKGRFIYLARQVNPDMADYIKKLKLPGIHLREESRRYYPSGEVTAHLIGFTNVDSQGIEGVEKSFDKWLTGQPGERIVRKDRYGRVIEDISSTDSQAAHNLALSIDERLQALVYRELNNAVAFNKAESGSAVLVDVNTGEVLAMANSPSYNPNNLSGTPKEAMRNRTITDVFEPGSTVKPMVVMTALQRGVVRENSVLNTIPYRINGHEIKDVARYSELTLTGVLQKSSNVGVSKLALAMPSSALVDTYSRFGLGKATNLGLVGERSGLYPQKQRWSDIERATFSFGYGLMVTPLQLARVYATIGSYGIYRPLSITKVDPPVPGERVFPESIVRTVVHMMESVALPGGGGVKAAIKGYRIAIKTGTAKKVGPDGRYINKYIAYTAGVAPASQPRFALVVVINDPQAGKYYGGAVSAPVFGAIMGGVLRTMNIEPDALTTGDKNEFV
T3 sequence (P02919 whole entry): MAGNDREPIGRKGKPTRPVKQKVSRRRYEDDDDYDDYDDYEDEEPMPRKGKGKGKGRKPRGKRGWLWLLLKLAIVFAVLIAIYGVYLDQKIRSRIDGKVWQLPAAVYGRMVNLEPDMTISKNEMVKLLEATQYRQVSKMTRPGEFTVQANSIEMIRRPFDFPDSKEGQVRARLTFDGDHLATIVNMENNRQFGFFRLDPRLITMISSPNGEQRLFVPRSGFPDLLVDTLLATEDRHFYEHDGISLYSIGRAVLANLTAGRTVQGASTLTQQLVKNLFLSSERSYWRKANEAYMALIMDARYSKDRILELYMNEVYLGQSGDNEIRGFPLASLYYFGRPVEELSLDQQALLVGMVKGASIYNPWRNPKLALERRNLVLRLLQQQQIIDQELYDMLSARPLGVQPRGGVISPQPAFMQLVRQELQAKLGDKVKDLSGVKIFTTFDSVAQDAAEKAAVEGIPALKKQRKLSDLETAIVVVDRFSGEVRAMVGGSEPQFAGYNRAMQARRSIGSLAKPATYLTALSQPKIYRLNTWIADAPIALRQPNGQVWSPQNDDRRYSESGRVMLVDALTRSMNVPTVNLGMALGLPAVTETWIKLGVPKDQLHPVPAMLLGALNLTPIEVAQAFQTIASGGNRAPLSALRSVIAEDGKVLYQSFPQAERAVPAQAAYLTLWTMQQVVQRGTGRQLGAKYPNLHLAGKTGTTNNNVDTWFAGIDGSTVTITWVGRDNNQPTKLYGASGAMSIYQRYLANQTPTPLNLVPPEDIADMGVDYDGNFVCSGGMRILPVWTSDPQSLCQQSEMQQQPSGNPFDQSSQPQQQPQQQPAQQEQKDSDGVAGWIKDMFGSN

Broadly, the EC50 is the concentration giving half of the maximal effect. As to `CN1CCN(C(=O)NC(C(=O)N[C@H]2Cc3cccc(C(=O)O)c3OB2O)c2csc(N)n2)C(=O)C1=O` (stereo partly drawn) [Example 43, (3R)-3-(2-(2-aminothiazol-4-yl)-2-(4-methyl-2,3-dioxopiperazine-1-carboxamido)acetamido)-2-hydroxy-3,4-dihydro-2H-benzo[e][1,2]oxaborinine-8-carboxylic acid], the EC50 in assay [1] is 30 to 500 µM; in assay [2] (setting [6]), greater than 100 µM. For the same molecule, the MIC with S. aureus ATCC 29213 is 64 to 128 mg/L; in assay [3], less than 64 mg/L; with E. coli DH5α/pLBII it was 32 to 64 mg/L; in assay [4] it was 32 to 64 mg/L.

In the case of `CCN1CCN(C(=O)N[C@@H](C(=O)N[C@H]2Cc3cccc(C(=O)O)c3OB2O)[C@@H](C)O)C(=O)C1=O` [Example 48, (R)-3-((2R,3R)-2-(4-Ethyl-2,3-dioxopiperazine-1-carboxamido)-3-hydroxy-butanamido)-2-hydroxy-3,4-dihydro-2H-benzo[e][1,2]oxaborinine-8-carboxylic acid], the EC50 was 30 to 500 µM in assay [1] and less than 10 µM in assay [2] (setting [6]). In addition, the MIC is greater than 128 mg/L in the assay on S. aureus ATCC 29213, less than 64 mg/L in assay [3], 8 to 16 mg/L in the assay on E. coli DH5α/pLBII and 8 to 16 mg/L in assay [4].

For `CS(=O)(=O)N1CCN(C(=O)NC(C(=O)N[C@H]2Cc3cccc(C(=O)O)c3OB2O)c2csc(N)n2)C1=O` (stereo partly drawn) [Example 20, (3R)-3-(2-(2-aminothiazol-4-yl)-2-(3-(methylsulfonyl)-2-oxoimidazolidine-1-carboxamido)acetamido)-2-hydroxy-3,4-dihydro-2H-benzo[e][1,2]oxaborinine-8-carboxylic acid], the EC50 in assay [1] is 30 to 500 µM; in assay [2] (setting [6]) it was less than 10 µM. Besides, the MIC in the assay with S. aureus ATCC 29213 is 64 to 128 mg/L; in assay [3], less than 64 mg/L; with E. coli DH5α/pLBII it was 32 to 64 mg/L; in assay [4], 32 to 64 mg/L.

`CCC(O)[C@@H](NC(=O)N1CCN(CC)C(=O)C1=O)C(=O)N[C@H]1Cc2cccc(C(=O)O)c2OB1O` (single isomer, unassigned) [Example 82]: the EC50 in assay [1] was 30 to 500 µM; in assay [2] (setting [6]), less than 10 µM. In addition, the MIC in the assay on S. aureus ATCC 29213 is greater than 128 mg/L; in assay [3], less than 64 mg/L; with E. coli DH5α/pLBII, 32 to 64 mg/L; in assay [4], 32 to 64 mg/L.

As to `Nc1nc(C(NC(=O)N2CCNC2=O)C(=O)N[C@H]2Cc3cccc(C(=O)O)c3OB2O)cs1` (stereo partly drawn) [Example 19, (3R)-3-(2-(2-aminothiazol-4-yl)-2-(2-oxoimidazolidine-1-carboxamido)acetamido)-2-hydroxy-3,4-dihydro-2H-benzo[e][1,2]oxaborinine-8-carboxylic acid], the EC50 in assay [1] is 30 to 500 µM; in assay [2] (setting [6]), less than 10 µM. Also, the MIC was 64 to 128 mg/L with S. aureus ATCC 29213, less than 64 mg/L in assay [3], 32 to 64 mg/L in the assay on E. coli DH5α/pLBII and 32 to 64 mg/L in assay [4].

For the molecule `CCN1CCN(C(=O)NC(C(=O)N[C@H]2Cc3cc(OC)cc(C(=O)O)c3OB2O)c2csc(N)n2)C(=O)C1=O` (stereo partly drawn) [Example 38, (3R)-3-(2-(2-aminothiazol-4-yl)-2-(4-ethyl-2,3-dioxopiperazine-1-carboxamido)acetamido)-2-hydroxy-6-methoxy-3,4-dihydro-2H-benzo[e][1,2]oxaborinine-8-carboxylic acid], the concentration giving a half-maximal response (EC50) was greater than 500 µM in assay [1] and less than 10 µM in assay [2] (setting [6]). In addition, the MIC is 64 to 128 mg/L in the assay with S. aureus ATCC 29213, less than 64 mg/L in assay [3], 32 to 64 mg/L in the assay on E. coli DH5α/pLBII and 32 to 64 mg/L in assay [4].

On to `CCN1CCN(C(=O)NC(C(=O)N[C@H]2Cc3cc(O)cc(C(=O)O)c3OB2O)c2csc(N)n2)C(=O)C1=O` (stereo partly drawn) [Example 39, (3R)-3-(2-(2-aminothiazol-4-yl)-2-(4-ethyl-2,3-dioxopiperazine-1-carboxamido)acetamido)-2,6-dihydroxy-3,4-dihydro-2H-benzo[e][1,2]oxaborinine-8-carboxylic acid], for which the EC50 is 30 to 500 µM in assay [1] and 10 to 100 µM in assay [2] (setting [7]). In addition, the MIC with S. aureus ATCC 29213 is greater than 128 mg/L; in assay [3], less than 64 mg/L; in the assay on E. coli DH5α/pLBII it was 32 to 64 mg/L; in assay [4] it was 32 to 64 mg/L.

Consider `Nc1nc(C(NC(=O)N2CCN(C3CC3)C(=O)C2=O)C(=O)N[C@H]2Cc3cccc(C(=O)O)c3OB2O)cs1` (stereo partly drawn) [Example 44, (3R)-3-(2-(2-aminothiazol-4-yl)-2-(4-cyclopropyl-2,3-dioxopiperazine-1-carboxamido)acetamido)-2-hydroxy-3,4-dihydro-2H-benzo[e][1,2]oxaborinine-8-carboxylic acid], for which the half-maximal effective concentration (EC50) in assay [1] is 30 to 500 µM; in assay [2] (setting [6]), less than 10 µM. Further, the MIC was 64 to 128 mg/L in the assay on S. aureus ATCC 29213, less than 64 mg/L in assay [3], 32 to 64 mg/L in the assay on E. coli DH5α/pLBII and 32 to 64 mg/L in assay [4].

For `Nc1nc(C(NC(=O)N2CCS(=O)(=O)CC2)C(=O)N[C@H]2Cc3cccc(C(=O)O)c3OB2O)cs1` (stereo partly drawn) [Example 65, (3R)-3-(2-(2-aminothiazol-4-yl)-2-(1,1-dioxidothiomorpholine-4-carboxamido)acetamido)-2-hydroxy-3,4-dihydro-2H-benzo[e][1,2]oxaborinine-8-carboxylic acid], the EC50 in assay [1] was 30 to 500 µM; in assay [2] (setting [7]), less than 10 µM. Also, the MIC is 64 to 128 mg/L with S. aureus ATCC 29213, less than 64 mg/L in assay [3], 32 to 64 mg/L in the assay on E. coli DH5α/pLBII and 32 to 64 mg/L in assay [4].

For `CCN1CCN(C(=O)NC(Cc2ccccc2)C(=O)N[C@H]2Cc3cccc(C(=O)O)c3OB2O)C(=O)C1=O` (stereo partly drawn) [Example 79, (3R)-3-(2-(4-ethyl-2,3-dioxopiperazine-1-carboxamido)-3-phenylpropanamido)-2-hydroxy-3,4-dihydro-2H-benzo[e][1,2]oxaborinine-8-carboxylic acid], the EC50 in assay [1] was 30 to 500 µM; in assay [5], less than 10 µM. Also, the MIC (with S. aureus ATCC 29213; in assay [3]) was less than 64 mg/L throughout.
